Test results: paper PMC6195743, “Renewable production of high density jet fuel precursor sesquiterpenes from Escherichia coli” (Biotechnology for Biofuels, 2018)

Key:
Assay in all cases: GC-MS of decane overlay from E. coli expressing the synthase
Type in all cases: cell-based
[1] = biological target: T1, α-isocomene synthase (MrTPS2; codon-optimized coMrTPS2) (Matricaria chamomilla, UniProt I6R4V5); conditions: main product alpha-isocomene with silphinene, modephene, beta-isocomene, caryophyllene, alpha-humulene; endogenous FPP supply, no FPP added
T1 construct: codon-optimized gene, untagged, plasmids pTrc99a / pBbE7a / prstA, expressed in E. coli DH1
T1 sequence (I6R4V5 1-546): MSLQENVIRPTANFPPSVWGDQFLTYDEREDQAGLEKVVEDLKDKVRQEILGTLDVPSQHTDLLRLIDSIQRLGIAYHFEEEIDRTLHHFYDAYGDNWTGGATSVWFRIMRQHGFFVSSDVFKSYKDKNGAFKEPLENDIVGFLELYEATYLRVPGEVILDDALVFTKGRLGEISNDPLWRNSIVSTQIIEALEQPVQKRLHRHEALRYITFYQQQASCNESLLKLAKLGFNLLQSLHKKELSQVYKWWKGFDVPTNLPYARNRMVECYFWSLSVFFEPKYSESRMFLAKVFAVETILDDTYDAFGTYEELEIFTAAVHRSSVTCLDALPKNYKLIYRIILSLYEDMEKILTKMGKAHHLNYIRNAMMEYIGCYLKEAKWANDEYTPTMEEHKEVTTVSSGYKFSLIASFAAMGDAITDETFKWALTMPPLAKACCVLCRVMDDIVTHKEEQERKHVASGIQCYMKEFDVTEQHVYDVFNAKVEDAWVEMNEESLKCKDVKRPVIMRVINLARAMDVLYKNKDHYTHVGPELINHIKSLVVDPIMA

[2] = biological target: T2, epi-isozizaene synthase (EIZS; codon-optimized coEIZS) (Streptomyces coelicolor, UniProt Q9K499); conditions: product epi-isozizaene (single product); endogenous FPP supply, no FPP added
T2 construct: gene cyc1; codon-optimized gene, untagged, plasmids pTrc99a / pBbE7a / prstA, expressed in E. coli DH1
T2 sequence (Q9K499 1-361): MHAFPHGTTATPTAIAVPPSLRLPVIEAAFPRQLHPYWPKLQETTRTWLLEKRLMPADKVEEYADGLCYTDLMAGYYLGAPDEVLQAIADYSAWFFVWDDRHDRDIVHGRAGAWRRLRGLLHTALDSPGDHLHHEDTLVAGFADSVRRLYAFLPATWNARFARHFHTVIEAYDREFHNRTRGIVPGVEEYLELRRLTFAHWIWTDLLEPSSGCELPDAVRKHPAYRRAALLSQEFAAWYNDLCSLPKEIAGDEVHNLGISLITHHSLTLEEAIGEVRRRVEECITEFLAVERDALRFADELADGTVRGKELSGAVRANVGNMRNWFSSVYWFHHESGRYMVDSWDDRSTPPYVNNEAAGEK

[3] = biological target: T3, pentalenene synthase (PentS; codon-optimized coPentS) (Streptomyces exfoliatus, UniProt Q55012); conditions: product pentalenene (single product); endogenous FPP supply, no FPP added
T3 construct: gene penA; codon-optimized gene, untagged, plasmids pTrc99a / pBbE7a / prstA, expressed in E. coli DH1; also in S. cerevisiae EPY300
T3 sequence (Q55012 2-337): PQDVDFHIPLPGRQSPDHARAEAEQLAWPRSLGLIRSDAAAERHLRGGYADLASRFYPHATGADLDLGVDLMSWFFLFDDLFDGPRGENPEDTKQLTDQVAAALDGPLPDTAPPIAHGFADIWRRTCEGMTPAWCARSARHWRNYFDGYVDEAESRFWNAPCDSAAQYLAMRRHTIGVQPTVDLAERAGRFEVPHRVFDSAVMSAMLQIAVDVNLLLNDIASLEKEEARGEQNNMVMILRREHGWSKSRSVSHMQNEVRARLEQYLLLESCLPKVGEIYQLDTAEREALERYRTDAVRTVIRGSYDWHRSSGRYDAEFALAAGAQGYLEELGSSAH

CC(C)=CCC/C(C)=C/CC/C(C)=C/COP(=O)(O)OP(=O)(O)O [farnesyl diphosphate]
GC-MS of decane overlay from E. coli expressing the synthase [1]: culture expressing coMrTPS2 produced a broad spectrum of compounds, including α-isocomene | GC-MS of decane overlay from E. coli expressing the synthase [2]: cultures expressing coEIZS and coPentS produced single products | GC-MS of decane overlay from E. coli expressing the synthase [3]: cultures expressing coEIZS and coPentS produced single products
